The values that follow come from publication PMC8589851 (Scientific Reports, 2021).

As usually defined, the half-life is how long it takes for the measured level to halve.

“And” between values parts separate entries of the source, which are not always exact repeats. Equal entries are not always repeated. Where two headings read alike, the source gives them in different places.

Data set [1] deals with SARS-CoV-2 NanoLuc reporter virus. Description: microbe, parasite or virus in culture. In kind it is cell-based.
The conditions of data set [2]: 0.25 mg daily for one week, cystic fibrosis patients; cited from earlier work.
For the next data set, the system named is native SARS-CoV-2. The following applies: Vero cells; cited from earlier work.
For data set [3] the following is noted: cited from earlier work.
For data set [4], the system named is SARS-CoV-2 Spike pseudotyped VSV(S). Description: microbe, parasite or virus in culture. Conditions: Severe acute respiratory syndrome coronavirus 2, A549, read-out: Hill plot-based EC-50, inhibition of virus penetration. The class given is cell-based.
The conditions of data set [5]: 0.50–0.60 mg injected, 12 normal subjects; cited from earlier work.
For data set [6] the following is noted: CF patients, cited from earlier work.
Setting [7] is: 0.25 mg ouabain daily for 9 days.
[8] abbreviates: 0.25 mg ouabain, normal human volunteers.

Turning to `C[C@]12CC[C@H](O)C[C@H]1CC[C@@H]1[C@@H]2CC[C@]2(C)[C@@H](C3=CC(=O)OC3)CC[C@]12O` [Digitoxigenin, digitoxigenin], the inhibition of infectivity in data set [1] was 100%.
The same measure, in the same setting: to `C[C@]12CC[C@H](O)C[C@H]1CC[C@@H]1[C@@H]2C[C@@H](O)[C@]2(C)[C@@H](C3=CC(=O)OC3)CC[C@]12O` [Digoxigenin, digoxigenin] belongs 100%.
For the compound `C[C@H]1O[C@@H](O[C@H]2[C@@H](O)C[C@H](O[C@H]3[C@@H](O)C[C@H](O[C@H]4CC[C@@]5(C)[C@H](CC[C@@H]6[C@@H]5C[C@@H](O)[C@]5(C)[C@@H](C7=CC(=O)OC7)CC[C@]65O)C4)O[C@@H]3C)O[C@@H]2C)C[C@H](O)[C@@H]1O` [Digoxin, digoxin], in data set [2], the adverse events result is listed as “no adverse events associated with the study drug”. The EC50 in the data set on native SARS-CoV-2 is 43 nM. In data set [1], this compound returned an inhibition of infectivity of 100%.
As to `C[C@@H]1O[C@@H](O[C@H]2C[C@@H](O)[C@]3(CO)[C@H]4[C@H](O)C[C@]5(C)[C@@H](C6=CC(=O)OC6)CC[C@]5(O)[C@@H]4CC[C@]3(O)C2)[C@H](O)[C@H](O)[C@H]1O` [Ouabain, ouabain], in data set [3] (setting [7]), the adverse events entry is reported as “No adverse events were reported” and the time to plateau was 4 to 5 days. Besides, in data set [3] (setting [8]), the half-life was 19 to 24 h; the peak plasma concentration was 12 ng/ml and 20 nM. Besides, the EC50 in data set [4] was determined as 16 ± 1 nM. Further, the adverse effects result in data set [5] is on record as “No adverse effects were reported”. Besides, the EC50 in the data set with native SARS-CoV-2 is 24 nM. Also, the inhibition of infectivity in data set [1] is reported as 100%. For the same compound, the EC50 in data set [1] (Severe acute respiratory syndrome coronavirus 2, read-out: EC50, inhibition of infectivity) was 36 nM.
On to `C[C@H]1O[C@@H](O[C@H]2[C@@H](O)C[C@H](O[C@H]3[C@@H](O)C[C@H](O[C@H]4CC[C@@]5(C)[C@H](CC[C@@H]6[C@@H]5CC[C@]5(C)[C@@H](C7=CC(=O)OC7)CC[C@]65O)C4)O[C@@H]3C)O[C@@H]2C)C[C@H](O)[C@@H]1O` [Digitoxin, digitoxin], for which the inhibition of infectivity in data set [1] is given as 100%. Further, the peak serum concentration in data set [6] (0.1 mg/day by mouth, by day 28) is 10 ng/ml and 13 nM. Further, the adverse events entry in data set [6] (0.05 or 0.1 mg/day for 28 days) is “no adverse events were associated with the study drug”.
